In ChEMBL document CHEMBL1144750, “Scaffold oriented synthesis. Part 2: Design, synthesis and biological evaluation of pyrimido-diazepines as receptor tyrosine kinase inhibitors” (Bioorg Med Chem Lett, 2008):

Legend:
[1] = target: T1, Vascular endothelial growth factor receptor 2 (Homo sapiens, UniProt P35968); experiment: Inhibition of KDR in presence of 1 mM ATP
[2] = target: Vascular endothelial growth factor receptor 2 (Mus musculus, UniProt P35918); experiment: Inhibition of VEGF-induced KDR phosphorylation in mouse 3T3 cells; type: cell-based, NIH3T3
[3] = target: Mast/stem cell growth factor receptor Kit (Homo sapiens, UniProt P10721); experiment: Inhibition of cKit
[4] = target: T2, Receptor-type tyrosine-protein kinase FLT3 (Homo sapiens, UniProt P36888); experiment: Inhibition of Flt3
T2 sequence (P36888 whole entry): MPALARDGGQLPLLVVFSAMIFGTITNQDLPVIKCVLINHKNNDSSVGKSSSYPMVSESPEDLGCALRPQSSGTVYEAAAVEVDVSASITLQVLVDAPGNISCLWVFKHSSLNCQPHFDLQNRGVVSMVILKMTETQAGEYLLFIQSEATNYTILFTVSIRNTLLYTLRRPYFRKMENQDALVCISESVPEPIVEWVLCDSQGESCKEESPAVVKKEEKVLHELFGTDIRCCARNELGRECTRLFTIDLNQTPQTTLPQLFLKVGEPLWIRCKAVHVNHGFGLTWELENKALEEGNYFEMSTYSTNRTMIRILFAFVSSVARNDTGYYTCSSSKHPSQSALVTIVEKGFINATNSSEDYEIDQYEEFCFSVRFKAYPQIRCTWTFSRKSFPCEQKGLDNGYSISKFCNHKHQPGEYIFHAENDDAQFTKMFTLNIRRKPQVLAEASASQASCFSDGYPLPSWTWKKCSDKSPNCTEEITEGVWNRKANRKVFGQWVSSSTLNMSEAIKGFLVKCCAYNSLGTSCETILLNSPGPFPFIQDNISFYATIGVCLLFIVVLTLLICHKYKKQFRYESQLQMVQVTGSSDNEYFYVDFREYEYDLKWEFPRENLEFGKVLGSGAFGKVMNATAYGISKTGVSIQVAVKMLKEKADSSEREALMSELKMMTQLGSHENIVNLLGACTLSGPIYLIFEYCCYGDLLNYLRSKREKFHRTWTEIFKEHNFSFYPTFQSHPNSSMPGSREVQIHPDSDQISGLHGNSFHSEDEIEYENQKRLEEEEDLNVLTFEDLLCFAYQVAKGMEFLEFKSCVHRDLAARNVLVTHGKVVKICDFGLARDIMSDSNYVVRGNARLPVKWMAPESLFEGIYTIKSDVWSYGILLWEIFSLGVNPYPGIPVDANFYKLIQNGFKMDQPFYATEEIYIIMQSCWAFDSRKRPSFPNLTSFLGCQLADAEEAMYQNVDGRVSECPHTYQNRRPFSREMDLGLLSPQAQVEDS

[5] = Inhibition of CK2 at 100 uM
[6] = target: Serine/threonine-protein kinase PLK1 (Homo sapiens, UniProt P53350); experiment: Inhibition of Plk1
[7] = target: RAC-alpha serine/threonine-protein kinase (Homo sapiens, UniProt P31749); experiment: Inhibition of Akt1
[8] = target: Serine/threonine-protein kinase PAK 4 (Homo sapiens, UniProt O96013); experiment: Inhibition of Pak4
[9] = target: T1, Vascular endothelial growth factor receptor 2; experiment: Inhibition of KDR in presence of 10 uM ATP
[10] = Inhibition of CK2

Serine/threonine-protein kinase PAK 4, sequence (O96013 whole entry): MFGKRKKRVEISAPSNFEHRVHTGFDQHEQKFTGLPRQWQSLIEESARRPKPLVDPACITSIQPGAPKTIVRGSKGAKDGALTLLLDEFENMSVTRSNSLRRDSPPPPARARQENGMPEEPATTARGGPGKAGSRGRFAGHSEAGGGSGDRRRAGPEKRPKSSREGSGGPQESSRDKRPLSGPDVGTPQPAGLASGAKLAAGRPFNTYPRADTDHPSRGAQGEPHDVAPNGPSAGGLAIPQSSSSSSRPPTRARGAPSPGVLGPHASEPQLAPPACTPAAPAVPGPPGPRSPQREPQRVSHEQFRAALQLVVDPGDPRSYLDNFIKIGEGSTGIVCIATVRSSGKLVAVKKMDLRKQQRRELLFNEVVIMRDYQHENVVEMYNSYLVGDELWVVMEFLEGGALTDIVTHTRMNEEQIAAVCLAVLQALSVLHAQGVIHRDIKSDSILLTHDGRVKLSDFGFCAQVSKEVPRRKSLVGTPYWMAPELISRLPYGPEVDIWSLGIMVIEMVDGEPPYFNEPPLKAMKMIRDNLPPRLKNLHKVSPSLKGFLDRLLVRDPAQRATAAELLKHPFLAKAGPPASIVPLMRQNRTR
Serine/threonine-protein kinase PLK1, sequence (P53350 whole entry): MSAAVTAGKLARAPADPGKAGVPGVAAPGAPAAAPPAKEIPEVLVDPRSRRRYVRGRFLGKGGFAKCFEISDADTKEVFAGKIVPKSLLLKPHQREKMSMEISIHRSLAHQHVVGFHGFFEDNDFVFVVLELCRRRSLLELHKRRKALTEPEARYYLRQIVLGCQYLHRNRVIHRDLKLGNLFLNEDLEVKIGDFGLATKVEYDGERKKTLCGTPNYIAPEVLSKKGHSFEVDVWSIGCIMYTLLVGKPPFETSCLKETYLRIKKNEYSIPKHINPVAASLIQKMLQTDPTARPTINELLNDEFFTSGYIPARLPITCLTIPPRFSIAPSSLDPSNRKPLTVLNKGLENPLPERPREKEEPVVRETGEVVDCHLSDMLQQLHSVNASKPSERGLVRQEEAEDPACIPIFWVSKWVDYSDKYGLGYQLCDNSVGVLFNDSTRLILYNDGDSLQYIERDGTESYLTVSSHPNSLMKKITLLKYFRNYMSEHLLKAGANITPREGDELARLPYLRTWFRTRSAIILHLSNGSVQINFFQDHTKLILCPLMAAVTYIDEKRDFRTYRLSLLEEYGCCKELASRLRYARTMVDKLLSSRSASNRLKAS
T1 sequence (P35968 whole entry): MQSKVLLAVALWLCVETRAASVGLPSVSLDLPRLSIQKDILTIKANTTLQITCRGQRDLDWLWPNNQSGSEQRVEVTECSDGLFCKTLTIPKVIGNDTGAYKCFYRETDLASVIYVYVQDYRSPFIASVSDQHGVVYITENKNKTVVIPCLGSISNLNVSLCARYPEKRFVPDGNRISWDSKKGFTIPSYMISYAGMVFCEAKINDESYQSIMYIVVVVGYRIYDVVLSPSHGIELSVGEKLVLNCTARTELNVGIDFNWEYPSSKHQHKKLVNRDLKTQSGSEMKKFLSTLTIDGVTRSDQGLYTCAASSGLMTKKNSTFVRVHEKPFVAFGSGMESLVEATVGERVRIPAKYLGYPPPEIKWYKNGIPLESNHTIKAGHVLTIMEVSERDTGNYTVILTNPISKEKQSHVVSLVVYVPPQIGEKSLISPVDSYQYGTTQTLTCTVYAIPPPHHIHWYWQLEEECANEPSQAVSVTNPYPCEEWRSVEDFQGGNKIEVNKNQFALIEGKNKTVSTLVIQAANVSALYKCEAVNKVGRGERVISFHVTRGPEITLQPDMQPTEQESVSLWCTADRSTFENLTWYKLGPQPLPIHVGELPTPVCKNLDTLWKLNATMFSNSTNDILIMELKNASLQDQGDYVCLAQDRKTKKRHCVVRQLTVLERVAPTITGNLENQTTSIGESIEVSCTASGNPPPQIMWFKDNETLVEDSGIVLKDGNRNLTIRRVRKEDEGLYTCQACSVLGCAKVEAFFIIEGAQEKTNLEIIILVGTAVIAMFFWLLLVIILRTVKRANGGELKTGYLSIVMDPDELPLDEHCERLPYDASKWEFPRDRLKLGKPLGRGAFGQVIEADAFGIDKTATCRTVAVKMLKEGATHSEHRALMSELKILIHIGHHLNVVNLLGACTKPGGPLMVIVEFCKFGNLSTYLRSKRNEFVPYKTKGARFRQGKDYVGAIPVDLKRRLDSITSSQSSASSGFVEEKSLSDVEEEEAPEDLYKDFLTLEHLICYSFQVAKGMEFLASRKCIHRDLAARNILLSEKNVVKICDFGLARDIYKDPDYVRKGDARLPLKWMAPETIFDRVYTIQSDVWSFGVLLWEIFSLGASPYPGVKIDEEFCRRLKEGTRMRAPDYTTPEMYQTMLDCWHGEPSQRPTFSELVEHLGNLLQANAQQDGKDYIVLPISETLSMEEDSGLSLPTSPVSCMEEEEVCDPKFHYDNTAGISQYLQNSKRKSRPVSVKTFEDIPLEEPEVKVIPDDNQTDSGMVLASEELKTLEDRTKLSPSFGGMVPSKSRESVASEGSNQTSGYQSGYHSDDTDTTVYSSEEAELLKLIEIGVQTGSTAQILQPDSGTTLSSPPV
Mast/stem cell growth factor receptor Kit, sequence (P10721 whole entry): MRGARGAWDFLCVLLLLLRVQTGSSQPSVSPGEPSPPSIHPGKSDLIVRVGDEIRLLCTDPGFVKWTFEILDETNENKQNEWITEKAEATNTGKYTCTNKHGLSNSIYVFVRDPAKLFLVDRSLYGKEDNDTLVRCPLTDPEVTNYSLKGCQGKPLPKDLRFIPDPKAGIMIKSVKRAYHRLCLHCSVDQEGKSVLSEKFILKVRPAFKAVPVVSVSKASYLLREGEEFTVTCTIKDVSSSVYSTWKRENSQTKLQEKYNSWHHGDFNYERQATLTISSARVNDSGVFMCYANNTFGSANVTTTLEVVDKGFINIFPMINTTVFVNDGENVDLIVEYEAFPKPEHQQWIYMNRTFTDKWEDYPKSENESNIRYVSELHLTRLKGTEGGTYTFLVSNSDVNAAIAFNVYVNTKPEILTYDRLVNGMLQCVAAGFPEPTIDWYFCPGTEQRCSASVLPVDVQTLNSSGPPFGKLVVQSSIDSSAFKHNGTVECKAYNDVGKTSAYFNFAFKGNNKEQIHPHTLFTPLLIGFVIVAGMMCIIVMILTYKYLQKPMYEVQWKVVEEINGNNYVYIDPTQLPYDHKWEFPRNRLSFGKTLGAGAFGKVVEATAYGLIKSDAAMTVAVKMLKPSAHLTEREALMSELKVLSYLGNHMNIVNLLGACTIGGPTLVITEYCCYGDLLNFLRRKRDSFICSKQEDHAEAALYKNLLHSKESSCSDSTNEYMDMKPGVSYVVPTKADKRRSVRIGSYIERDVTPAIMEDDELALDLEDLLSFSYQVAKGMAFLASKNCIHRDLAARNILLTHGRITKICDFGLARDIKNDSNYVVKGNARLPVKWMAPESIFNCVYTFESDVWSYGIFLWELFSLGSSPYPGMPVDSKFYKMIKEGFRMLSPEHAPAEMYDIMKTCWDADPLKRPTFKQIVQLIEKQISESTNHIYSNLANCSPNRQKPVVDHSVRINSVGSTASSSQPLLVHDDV
RAC-alpha serine/threonine-protein kinase, sequence (P31749 whole entry): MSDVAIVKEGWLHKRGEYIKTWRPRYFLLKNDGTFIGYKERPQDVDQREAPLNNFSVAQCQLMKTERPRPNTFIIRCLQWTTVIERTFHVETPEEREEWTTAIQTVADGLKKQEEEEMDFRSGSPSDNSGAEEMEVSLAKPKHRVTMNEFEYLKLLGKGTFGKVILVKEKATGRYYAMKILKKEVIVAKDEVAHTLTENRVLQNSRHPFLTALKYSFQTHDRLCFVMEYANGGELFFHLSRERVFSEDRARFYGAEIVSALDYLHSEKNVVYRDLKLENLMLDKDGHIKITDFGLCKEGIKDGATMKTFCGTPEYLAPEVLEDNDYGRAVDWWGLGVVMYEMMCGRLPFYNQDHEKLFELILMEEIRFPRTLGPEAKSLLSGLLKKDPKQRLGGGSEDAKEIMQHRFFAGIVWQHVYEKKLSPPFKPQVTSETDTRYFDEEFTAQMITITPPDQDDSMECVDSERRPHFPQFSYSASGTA

SMILES	IC50 [1] [nM]	IC50 [2] [nM]	IC50 [3] [nM]	IC50 [4] [nM]	inhibition [5] [%]	IC50 [6] [nM]	IC50 [7] [nM]	IC50 [8] [nM]	IC50 [9] [nM]	IC50 [10] [nM]
Nc1ncnc2c1N=C(c1ccc(NC(=O)Nc3cccc(C(F)(F)F)c3F)cc1)CCN2	49	1520	28	3	–	–	–	–	–	–
Nc1ncnc2c1N=C(c1cccc(Cl)c1)CCN2	–	–	–	–	64	> 100000	> 100000	> 100000	600	–
Nc1ncnc2c1N=C(c1ccccc1)CCN2	–	–	–	–	–	> 100000	92000	> 100000	3000	4000
Nc1ncnc2c1N=C(c1ccc(NC(=O)Nc3ccc(F)c(C(F)(F)F)c3)cc1)CCN2	5	345	22	7	–	–	–	–	–	–
Nc1ncnc2c1N=C(c1ccc(NC(=O)Nc3ccc(C(F)(F)F)cc3)cc1)CCN2	110	2440	35	9	–	–	–	–	–	–
Cc1ccc(C2=Nc3c(N)ncnc3NCC2)cc1NC(=O)Nc1cccc(C(F)(F)F)c1	–	52	12	–	–	–	–	–	–	–
Nc1ncnc2c1N=C(c1ccc(NC(=O)Nc3cccc(Cl)c3)cc1)CCN2	19	50	18	6	–	–	–	–	–	–
Nc1nc(N)c2c(n1)NCCC(c1ccc(NC(=O)Nc3ccccc3)cc1)=N2	2860	–	> 13000	2860	–	–	–	–	–	–
Nc1ncnc2c1N=C(c1ccc(NC(=O)Nc3ccccc3)cc1)CCN2	951	–	–	–	–	–	–	–	–	–
Cc1cccc(C2=Nc3c(N)ncnc3NCC2)c1	–	–	–	–	–	50000	> 100000	> 100000	3000	12000
Nc1ncnc2c1N=C(c1cccc(NC(=O)Nc3cccc(C(F)(F)F)c3)c1)CCN2	–	790	91	–	–	–	–	–	–	–
Cc1ccc(C2=Nc3c(N)ncnc3NCC2)cc1	–	–	–	–	–	> 100000	> 100000	> 100000	4000	> 100000
Cc1ccc(F)c(NC(=O)Nc2ccc(C3=Nc4c(N)ncnc4NCC3)cc2)c1	65	311	37	13	–	–	–	–	–	–
Nc1ncnc2c1N=C(c1ccc(NC(=O)Nc3cccc(C(F)(F)F)c3)cc1)CCN2	3	13	–	2	–	–	–	–	–	–
Nc1nc(N)c2c(n1)NCCC(c1ccc(Cl)cc1)=N2	–	–	–	–	–	> 100000	> 100000	> 100000	9000	> 100000
Nc1ncnc2c1N=C(c1cccc(NC(=O)Nc3ccccc3)c1)CCN2	888	–	3020	2700	–	–	–	–	–	–
Nc1ncnc2c1N=C(c1ccc(NC(=O)Nc3ccc(Cl)c(C(F)(F)F)c3)cc1)CCN2	6	49	50	16	–	–	–	–	–	–
Nc1ncnc2c1N=C(c1ccc(NC(=O)Nc3cc(C(F)(F)F)ccc3F)cc1)CCN2	4	121	–	–	–	–	–	–	–	–
Nc1nc(N)c2c(n1)NCCC(c1ccccc1)=N2	–	–	–	–	–	> 100000	> 100000	> 100000	35000	> 100000
Nc1ncnc2c1N=C(c1ccc(Cl)cc1)CCN2	–	–	–	–	–	> 100000	> 100000	> 100000	3000	> 100000
Nc1nc(N)c2c(n1)NCCC(c1cccc(Cl)c1)=N2	–	–	–	–	–	> 100000	> 100000	> 100000	21000	–
